# Assay results reported in article PMC3059353 (Biochemistry, 2011).
# Biological target: T1, adenine deaminase (ADE) (Escherichia coli, UniProt P31441)
# T1 sequence (P31441 1-588): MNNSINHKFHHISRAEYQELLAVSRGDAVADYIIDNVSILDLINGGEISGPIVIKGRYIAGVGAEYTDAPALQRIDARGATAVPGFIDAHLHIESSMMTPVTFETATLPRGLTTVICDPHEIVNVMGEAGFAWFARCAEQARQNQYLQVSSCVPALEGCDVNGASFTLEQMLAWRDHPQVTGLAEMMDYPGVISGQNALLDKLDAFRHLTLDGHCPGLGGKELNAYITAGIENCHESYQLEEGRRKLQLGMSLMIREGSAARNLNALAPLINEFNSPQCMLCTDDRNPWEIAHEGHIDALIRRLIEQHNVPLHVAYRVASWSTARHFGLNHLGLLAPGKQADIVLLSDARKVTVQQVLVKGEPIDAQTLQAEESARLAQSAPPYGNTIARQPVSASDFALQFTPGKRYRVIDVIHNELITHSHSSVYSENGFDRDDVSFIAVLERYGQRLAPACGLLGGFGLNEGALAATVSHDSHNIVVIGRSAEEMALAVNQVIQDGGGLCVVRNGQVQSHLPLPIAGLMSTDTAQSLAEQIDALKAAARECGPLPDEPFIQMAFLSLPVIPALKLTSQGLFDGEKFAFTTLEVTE
# Assay: GDH-coupled adenine deamination assay after […] h incubation with Mn/Mn-ADE
# Type: biochemical
structure (smiles),measurement,value
Clc1ncnc2[nH]cnc12 [6-chloropurine],Ki,130 ± 15 nM
